Laboratory results: patent US11492346B2, “Benzisoxazole sulfonamide derivatives” (Pfizer Inc., priority 2019, dated 2022)
Like-named read-outs stand apart in the source and are kept apart here.

What was measured:
KAT6A = KAT6A (Homo sapiens (Human), UniProt Q92794); experiment: KAT assay (SAMDI mass spectrometry), KAT6A; assay type: biochemical;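 also: Baculovirus-expressed KAT6A acetylating histone H3 (1-21) peptide (2 µM), 30-60 min at room temperature, % product conversion fitted to Morrison equation for tight-binding competitive inhibitors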
KAT6A, sequence (Q92794 whole entry): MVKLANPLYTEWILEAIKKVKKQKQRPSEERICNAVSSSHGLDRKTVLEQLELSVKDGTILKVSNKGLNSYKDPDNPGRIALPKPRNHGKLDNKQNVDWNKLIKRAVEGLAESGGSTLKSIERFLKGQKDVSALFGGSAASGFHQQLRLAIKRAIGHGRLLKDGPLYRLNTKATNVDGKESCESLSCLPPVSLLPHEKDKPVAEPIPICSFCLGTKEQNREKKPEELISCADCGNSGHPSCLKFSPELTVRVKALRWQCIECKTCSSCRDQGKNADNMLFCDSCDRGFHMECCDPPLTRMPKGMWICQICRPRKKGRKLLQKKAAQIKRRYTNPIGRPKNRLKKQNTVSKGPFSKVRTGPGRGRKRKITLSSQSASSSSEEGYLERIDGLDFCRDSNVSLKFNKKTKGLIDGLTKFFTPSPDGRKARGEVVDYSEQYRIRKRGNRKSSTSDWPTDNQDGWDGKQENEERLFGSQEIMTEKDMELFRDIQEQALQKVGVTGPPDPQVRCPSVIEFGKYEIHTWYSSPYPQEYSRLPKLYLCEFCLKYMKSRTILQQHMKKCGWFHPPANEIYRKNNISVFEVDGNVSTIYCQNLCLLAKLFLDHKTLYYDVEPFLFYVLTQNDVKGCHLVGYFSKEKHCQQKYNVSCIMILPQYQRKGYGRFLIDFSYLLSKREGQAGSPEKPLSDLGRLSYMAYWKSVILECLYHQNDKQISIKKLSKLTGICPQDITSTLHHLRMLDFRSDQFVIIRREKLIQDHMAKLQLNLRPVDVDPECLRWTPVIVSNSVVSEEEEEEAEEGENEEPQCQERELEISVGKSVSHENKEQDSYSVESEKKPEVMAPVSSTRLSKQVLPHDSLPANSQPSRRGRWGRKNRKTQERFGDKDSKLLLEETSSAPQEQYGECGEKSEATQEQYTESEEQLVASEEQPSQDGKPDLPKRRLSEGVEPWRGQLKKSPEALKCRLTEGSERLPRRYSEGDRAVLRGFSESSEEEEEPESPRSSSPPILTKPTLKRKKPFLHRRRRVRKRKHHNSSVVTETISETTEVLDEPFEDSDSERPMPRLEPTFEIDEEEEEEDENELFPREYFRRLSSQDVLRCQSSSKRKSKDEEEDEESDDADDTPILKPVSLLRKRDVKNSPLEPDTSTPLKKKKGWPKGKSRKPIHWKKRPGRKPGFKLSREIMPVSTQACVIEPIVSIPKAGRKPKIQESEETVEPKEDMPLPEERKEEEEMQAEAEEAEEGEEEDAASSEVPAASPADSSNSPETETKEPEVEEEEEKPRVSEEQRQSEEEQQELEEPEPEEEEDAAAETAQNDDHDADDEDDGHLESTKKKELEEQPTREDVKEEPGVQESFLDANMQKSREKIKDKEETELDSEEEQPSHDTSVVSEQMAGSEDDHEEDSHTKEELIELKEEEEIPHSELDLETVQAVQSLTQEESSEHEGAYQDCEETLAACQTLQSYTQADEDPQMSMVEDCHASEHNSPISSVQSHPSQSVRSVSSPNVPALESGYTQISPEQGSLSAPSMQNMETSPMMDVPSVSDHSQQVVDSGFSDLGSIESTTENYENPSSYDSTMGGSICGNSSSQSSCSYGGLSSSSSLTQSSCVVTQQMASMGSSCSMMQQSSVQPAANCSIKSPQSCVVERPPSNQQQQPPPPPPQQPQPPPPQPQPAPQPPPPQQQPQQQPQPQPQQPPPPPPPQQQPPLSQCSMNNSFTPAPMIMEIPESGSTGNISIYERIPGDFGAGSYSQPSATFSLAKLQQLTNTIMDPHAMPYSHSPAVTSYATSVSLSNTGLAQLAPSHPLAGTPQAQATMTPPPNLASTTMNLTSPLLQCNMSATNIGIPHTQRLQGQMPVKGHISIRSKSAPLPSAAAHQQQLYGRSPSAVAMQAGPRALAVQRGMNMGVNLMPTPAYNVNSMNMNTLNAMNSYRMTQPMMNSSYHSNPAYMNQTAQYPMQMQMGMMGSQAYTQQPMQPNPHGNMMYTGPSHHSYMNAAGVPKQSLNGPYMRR

KAT7 = KAT7 (Homo sapiens (Human), UniProt O95251); experiment: KAT assay (SAMDI mass spectrometry), KAT7; assay type: biochemical;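 also: Baculovirus-expressed enzyme acetylating a histone peptide at room temperature, percent conversion from product and substrate peak areas, Ki from a Morrison tight-binding competitive fit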
KAT7, sequence (O95251 whole entry): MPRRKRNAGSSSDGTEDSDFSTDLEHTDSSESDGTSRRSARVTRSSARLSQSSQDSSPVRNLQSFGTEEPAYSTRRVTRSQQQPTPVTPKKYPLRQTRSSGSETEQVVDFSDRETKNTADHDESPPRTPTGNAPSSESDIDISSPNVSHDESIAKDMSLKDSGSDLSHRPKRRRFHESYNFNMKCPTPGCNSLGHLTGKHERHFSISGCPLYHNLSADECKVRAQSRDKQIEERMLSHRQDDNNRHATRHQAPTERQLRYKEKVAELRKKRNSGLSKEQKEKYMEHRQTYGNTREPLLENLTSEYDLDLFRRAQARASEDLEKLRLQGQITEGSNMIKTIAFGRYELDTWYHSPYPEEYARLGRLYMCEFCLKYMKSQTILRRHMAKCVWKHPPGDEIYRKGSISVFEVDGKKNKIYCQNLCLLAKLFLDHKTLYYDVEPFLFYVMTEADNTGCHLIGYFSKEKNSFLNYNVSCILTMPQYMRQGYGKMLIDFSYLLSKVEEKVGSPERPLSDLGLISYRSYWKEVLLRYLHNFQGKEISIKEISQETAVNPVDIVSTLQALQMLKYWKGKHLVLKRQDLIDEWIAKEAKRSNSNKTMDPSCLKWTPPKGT

[1] = KAT6a Ki at 1 μM AcCoA, 1 μM AcCoA
[2] = KAT6a Ki at 10 μM AcCoA, 10 μM AcCoA
[3] = read-out: KAT6a Ki at 1 μM AcCoA, 1 μM AcCoA
[4] = read-out: KAT7 Ki at 1 μM AcCoA
[5] = read-out: KAT6a Ki at 10 μM AcCoA, 10 μM AcCoA

SMILES | Ki (KAT6A; [1]) [nM] | Ki (KAT7; KAT7 Ki at 1 μM AcCoA) [nM] | Ki (KAT6A; [2]) [nM] | Ki (KAT6A; [3]) [nM] | Ki (KAT7; [4]) [nM] | Ki (KAT6A; [5]) [nM]
COc1cccc(OC)c1S(=O)(=O)Nc1noc2cc(C(O)c3ncco3)cc(OC)c12 (single isomer, unassigned) [Example 108, N-{6-[(S*)-hydroxy(1,3-oxazol-2-yl)methyl]-4-methoxy-1,2-benzoxazol-3-yl}-2,6-dimethoxybenzenesulfonamide] | 72 | 1300 |  |  |  | 
COc1cccc(OC)c1S(=O)(=O)Nc1noc2cc(C(O)c3ncco3)cc(OC)c12 (single isomer, unassigned) [Example 109, N-{6-[(R*)-hydroxy(1,3-oxazol-2-yl)methyl]-4-methoxy-1,2-benzoxazol-3-yl}-2,6-dimethoxybenzenesulfonamide] | 44 | 3100 |  |  |  | 
COc1cccc(OC)c1S(=O)(=O)Nc1noc2cc(C(O)c3ccon3)cc(OC)c12 (single isomer, unassigned) [Example 112] | 82 | 1500 |  |  |  | 
COc1cccc(OC)c1S(=O)(=O)Nc1noc2cc(C(O)c3ccon3)cc(OC)c12 (single isomer, unassigned) [Example 113] | 14 | 2800 |  |  |  | 
COc1cccc(OC)c1S(=O)(=O)Nc1noc2cc(C(O)c3ncccn3)cc(OC)c12 (single isomer, unassigned) [Example 115] | 1220 | > 15000 |  |  |  | 
COc1cccc(OC)c1S(=O)(=O)Nc1noc2cc(C(O)c3cc[nH]n3)cc(OC)c12 (single isomer, unassigned) [Example 117] | 202 | 200 |  |  |  | 
COc1cccc(OC)c1S(=O)(=O)Nc1noc2cc(C(O)c3cc[nH]n3)cc(OC)c12 (single isomer, unassigned) [Example 118] | 357 | 2300 |  |  |  | 
COc1cccc(OC)c1S(=O)(=O)Nc1noc2cc(C(O)c3cnoc3)cc(OC)c12 (single isomer, unassigned) [Example 120] | 831 | 2400 | 212 |  |  | 
COc1cccc(OC)c1S(=O)(=O)Nc1noc2cc(C(O)c3cnoc3)cc(OC)c12 (single isomer, unassigned) [Example 121] | 1580 | > 15000 | > 600 |  |  | 
COc1cccc(OC)c1S(=O)(=O)Nc1noc2cc(C(O)c3cocn3)cc(OC)c12 (single isomer, unassigned) [Example 126] | 230 | 4150 |  |  |  | 
COc1cccc(OC)c1S(=O)(=O)Nc1noc2cc(Cn3ncc4ccccc43)cc(OC)c12 [Example 30] |  |  |  | 60 | 1100 | 
COc1ccc(S(=O)(=O)Nc2noc3cc(Cn4cccn4)ccc23)c(OC)c1 [Example 35] |  |  |  | 15 | 420 | 
COc1ccc(Cl)cc1S(=O)(=O)Nc1noc2cc(Cn3cccn3)ccc12 [Example 36] |  |  |  | 17 | 980 | 
COCc1ccc(OC)c(S(=O)(=O)Nc2noc3cc(Cn4cccn4)ccc23)c1 [Example 37] |  |  |  | 17 | 4600 | 
COc1cc(C)ccc1S(=O)(=O)Nc1noc2cc(Cn3cccn3)ccc12 [Example 38] |  |  |  | 16 | 530 | 
CCOc1cc2c(NS(=O)(=O)c3c(OC)cccc3OC)noc2cc1Cn1cccn1 [Example 40] |  |  |  | 0.47 | 380 | 
COc1cc2c(cc1S(=O)(=O)Nc1noc3cc(Cn4cccn4)cc(OC)c13)CCOC2 [Example 43] |  |  |  | 3.6 | 570 | 
COc1cc(Cn2cccn2)cc2onc(NS(=O)(=O)c3ccccc3C(F)(F)F)c12 [Example 52] |  |  |  | 14.6 | 660 | 7.32
COc1cccc(OC)c1S(=O)(=O)Nc1noc2cc(Cn3cc(O)cn3)cc(OC)c12 [Example 105, N-{6-[(4-hydroxy-1H-pyrazol-1-yl)methyl]-4-methoxy-1,2-benzoxazol-3-yl}-2,6-dimethoxybenzene-1-sulfonamide] |  |  |  | 3.08 | 230 | 6.28
COc1cccc(OC)c1S(=O)(=O)Nc1noc2cc(C(O)c3ccccn3)cc(OC)c12 (stereo not drawn) [Example 106, N-{6-[hydroxy(pyridin-2-yl)methyl]-4-methoxy-1,2-benzoxazol-3-yl}-2,6-dimethoxybenzenesulfonamide] |  |  |  | 35 | 1900 | 
COc1cccc(OC)c1S(=O)(=O)Nc1noc2cc(Cc3cnccn3)cc(OC)c12 [Example 111, 2,6-dimethoxy-N-[4-methoxy-6-(pyrazin-2-ylmethyl)-1,2-benzoxazol-3-yl]benzenesulfonamide] |  |  |  | 13 | 390 | 
COc1cccc(OC)c1S(=O)(=O)Nc1noc2cc(Cc3cc[nH]n3)cc(OC)c12 [Example 119] |  |  |  | 21 | 650 | 13
COc1cccc(OC)c1S(=O)(=O)Nc1noc2cc(Cc3cnoc3)cc(OC)c12 [Example 122] |  |  |  | 164 | 7400 | 25
COc1cccc(OC)c1S(=O)(=O)Nc1noc2cc(C(O)c3cnccn3)cc(OC)c12 (stereo not drawn) [Example 123] |  |  |  | 138 | 4600 | 

Second part, the compound after the results:

Ki (KAT6A; [1]) [nM] | Ki (KAT7; KAT7 Ki at 1 μM AcCoA) [nM] | Ki (KAT6A; [2]) [nM] | Ki (KAT6A; [3]) [nM] | Ki (KAT7; [4]) [nM] | Ki (KAT6A; [5]) [nM] | SMILES
 |  |  | 3.1 | 310 |  | COc1cccc(OC)c1S(=O)(=O)Nc1noc2cc(Cn3cccn3)cc(Cl)c12 [Example 33]
 |  |  | 32.9 | 1030 | 13.1 | COc1cc(Cn2cccn2)cc2onc(NS(=O)(=O)c3ccc(C(F)(F)F)cc3)c12 [Example 46]
 |  |  | 14.9 | 410 | 6.51 | COc1cc(Cn2cccn2)cc2onc(NS(=O)(=O)c3cc(C)cc(C)c3)c12 [Example 48]
 |  |  | 9.77 | 370 | 4.14 | COc1cc(Cn2cccn2)cc2onc(NS(=O)(=O)c3cc(F)ccc3C)c12 [Example 49]
 |  |  | 16.1 | 300 | 8.78 | COc1cc(Cn2cccn2)cc2onc(NS(=O)(=O)c3cccc(C(F)(F)F)c3)c12 [Example 53]
 |  |  | 57 | 1160 | 38 | COc1cc(Cn2cccn2)cc2onc(NS(=O)(=O)c3cccc(F)c3F)c12 [Example 54]
 |  |  | 291 | 15000 | 178 | COC(=O)c1cccc(C)c1S(=O)(=O)Nc1noc2cc(Cn3cccn3)cc(OC)c12 [Example 55]
 |  |  | 14.9 | 600 | 7.31 | COc1cc(Cn2cccn2)cc2onc(NS(=O)(=O)c3cccc(F)c3C)c12 [Example 56]
 |  |  | 16 | 450 |  | COc1cc(Cn2cccn2)cc2onc(NS(=O)(=O)c3cc(F)cc(F)c3)c12 [Example 57]
 |  |  | 11.1 | 860 | 5.23 | COc1cc(Cn2cccn2)cc2onc(NS(=O)(=O)c3cc(C)ccc3F)c12 [Example 58]
 |  |  | 13 | 220 | 6.25 | COc1cccc(S(=O)(=O)Nc2noc3cc(Cn4cccn4)cc(OC)c23)c1 [Example 59]
 |  |  | 9.81 | 420 | 4.64 | COc1cc(Cn2cccn2)cc2onc(NS(=O)(=O)c3ccc(OC4CC4)cc3)c12 [Example 60]
 |  |  | 9.64 | 360 | 3.9 | COc1cc(Cn2cccn2)cc2onc(NS(=O)(=O)c3c(F)cc(C)cc3F)c12 [Example 62]
 |  |  | 15.8 | 940 | 10.9 | COc1cc(Cn2cccn2)cc2onc(NS(=O)(=O)c3cccc(F)c3Cl)c12 [Example 63]
 |  |  | 25.3 | 630 | 11 | COc1cc(Cn2cccn2)cc2onc(NS(=O)(=O)c3cc(F)c(F)c(F)c3)c12 [Example 64]
 |  |  | 95.4 | 4050 | 65.6 | CNC(=O)c1ccc(S(=O)(=O)Nc2noc3cc(Cn4cccn4)cc(OC)c23)cc1 [Example 66]
 |  |  | 20 | 1760 | 10.2 | COCc1ccccc1S(=O)(=O)Nc1noc2cc(Cn3cccn3)cc(OC)c12 [Example 67]
 |  |  | 14.9 | 250 | 10.5 | COc1cc(Cn2cccn2)cc2onc(NS(=O)(=O)c3cc(F)c(Cl)cc3F)c12 [Example 68]
 |  |  |  | 370 | 9.1 | CCOc1ccc(S(=O)(=O)Nc2noc3cc(Cn4cccn4)cc(OC)c23)cc1 [Example 69]
 |  |  | 24.8 | 2870 | 13.6 | COC(=O)c1c(C)cccc1S(=O)(=O)Nc1noc2cc(Cn3cccn3)cc(OC)c12 [Example 74]
 |  |  | 15.6 | 360 | 5.32 | COc1cc(OC)cc(S(=O)(=O)Nc2noc3cc(Cn4cccn4)cc(OC)c23)c1 [Example 80]
 |  |  | 18.2 | 1620 | 9.96 | CCc1nc2cc(S(=O)(=O)Nc3noc4cc(Cn5cccn5)cc(OC)c34)ccc2o1 [Example 81]
 |  |  | 16.9 | 640 | 12.2 | COc1cc(S(=O)(=O)Nc2noc3cc(Cn4cccn4)cc(OC)c23)ccc1F [Example 82]
 |  |  | 13.7 | 780 | 7.76 | COc1ccc(O)c(S(=O)(=O)Nc2noc3cc(Cn4cccn4)cc(OC)c23)c1 [Example 83]
 |  |  | 13.3 | 1140 | 8.77 | COc1ccc(S(=O)(=O)Nc2noc3cc(Cn4cccn4)cc(OC)c23)c(C)c1F [Example 85]
 |  |  | 28.9 | 370 | 7.11 | COc1cc(Cn2cccn2)cc2onc(NS(=O)(=O)c3cc(F)c(F)cc3F)c12 [Example 86]
 |  |  | 0.3 | 150 | 0.51 | COc1ccc(O)c(OC)c1S(=O)(=O)Nc1noc2cc(Cn3cccn3)cc(OC)c12 [Example 103, 3-hydroxy-2,6-dimethoxy-N-{4-methoxy-6-[(1H-pyrazol-1-yl)methyl]-1,2-benzoxazol-3-yl}benzene-1-sulfonamide]
 |  |  | 6.11 | 2060 | 3.89 | COc1cccc(O)c1S(=O)(=O)Nc1noc2cc(Cn3cccn3)cc(OC)c12 [Example 104, 2-hydroxy-6-methoxy-N-{4-methoxy-6-[(1H-pyrazol-1-yl)methyl]-1,2-benzoxazol-3-yl}benzene-1-sulfonamide]
